# Biological target: T1, human NaV1.8 (Homo sapiens, UniProt Q9Y5Y9)
# T1 construct: The following NaV1.8 recombinant cell line was used for recordings: HEK-NaV1.8 (NM 006514.1); expressed in transfected cells; host or cells: HEK (recombinant cell line HEK-NaV1.8)
# Experiment: Electrophysiology: automated whole-cell voltage-clamp (patch clamp, Qube384) recordings of sodium currents in HEK-NaV1.8 cells
# Format: cell-based
# Conditions: potency data either taken from inactivated or resting state, read-out: Potency category (human NaV1.8 IC50)
# Method in brief: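 Automated whole-cell patch clamp at room temperature on HEK cells expressing human NaV1.8, with 0.3% DMSO vehicle controls. State-dependent protocol from −120 mV tested resting (P1) and half-inactivated (P2, 4 s at V1/2) channels, plus 40-pulse trains at 10 and 20 Hz. Values after ~12 min compound exposure were normalised to baseline and corrected for vehicle run-down; IC50 from a 4-parameter logistic fit, taken from inactivated or resting state.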
# T1 sequence (Q9Y5Y9 whole entry): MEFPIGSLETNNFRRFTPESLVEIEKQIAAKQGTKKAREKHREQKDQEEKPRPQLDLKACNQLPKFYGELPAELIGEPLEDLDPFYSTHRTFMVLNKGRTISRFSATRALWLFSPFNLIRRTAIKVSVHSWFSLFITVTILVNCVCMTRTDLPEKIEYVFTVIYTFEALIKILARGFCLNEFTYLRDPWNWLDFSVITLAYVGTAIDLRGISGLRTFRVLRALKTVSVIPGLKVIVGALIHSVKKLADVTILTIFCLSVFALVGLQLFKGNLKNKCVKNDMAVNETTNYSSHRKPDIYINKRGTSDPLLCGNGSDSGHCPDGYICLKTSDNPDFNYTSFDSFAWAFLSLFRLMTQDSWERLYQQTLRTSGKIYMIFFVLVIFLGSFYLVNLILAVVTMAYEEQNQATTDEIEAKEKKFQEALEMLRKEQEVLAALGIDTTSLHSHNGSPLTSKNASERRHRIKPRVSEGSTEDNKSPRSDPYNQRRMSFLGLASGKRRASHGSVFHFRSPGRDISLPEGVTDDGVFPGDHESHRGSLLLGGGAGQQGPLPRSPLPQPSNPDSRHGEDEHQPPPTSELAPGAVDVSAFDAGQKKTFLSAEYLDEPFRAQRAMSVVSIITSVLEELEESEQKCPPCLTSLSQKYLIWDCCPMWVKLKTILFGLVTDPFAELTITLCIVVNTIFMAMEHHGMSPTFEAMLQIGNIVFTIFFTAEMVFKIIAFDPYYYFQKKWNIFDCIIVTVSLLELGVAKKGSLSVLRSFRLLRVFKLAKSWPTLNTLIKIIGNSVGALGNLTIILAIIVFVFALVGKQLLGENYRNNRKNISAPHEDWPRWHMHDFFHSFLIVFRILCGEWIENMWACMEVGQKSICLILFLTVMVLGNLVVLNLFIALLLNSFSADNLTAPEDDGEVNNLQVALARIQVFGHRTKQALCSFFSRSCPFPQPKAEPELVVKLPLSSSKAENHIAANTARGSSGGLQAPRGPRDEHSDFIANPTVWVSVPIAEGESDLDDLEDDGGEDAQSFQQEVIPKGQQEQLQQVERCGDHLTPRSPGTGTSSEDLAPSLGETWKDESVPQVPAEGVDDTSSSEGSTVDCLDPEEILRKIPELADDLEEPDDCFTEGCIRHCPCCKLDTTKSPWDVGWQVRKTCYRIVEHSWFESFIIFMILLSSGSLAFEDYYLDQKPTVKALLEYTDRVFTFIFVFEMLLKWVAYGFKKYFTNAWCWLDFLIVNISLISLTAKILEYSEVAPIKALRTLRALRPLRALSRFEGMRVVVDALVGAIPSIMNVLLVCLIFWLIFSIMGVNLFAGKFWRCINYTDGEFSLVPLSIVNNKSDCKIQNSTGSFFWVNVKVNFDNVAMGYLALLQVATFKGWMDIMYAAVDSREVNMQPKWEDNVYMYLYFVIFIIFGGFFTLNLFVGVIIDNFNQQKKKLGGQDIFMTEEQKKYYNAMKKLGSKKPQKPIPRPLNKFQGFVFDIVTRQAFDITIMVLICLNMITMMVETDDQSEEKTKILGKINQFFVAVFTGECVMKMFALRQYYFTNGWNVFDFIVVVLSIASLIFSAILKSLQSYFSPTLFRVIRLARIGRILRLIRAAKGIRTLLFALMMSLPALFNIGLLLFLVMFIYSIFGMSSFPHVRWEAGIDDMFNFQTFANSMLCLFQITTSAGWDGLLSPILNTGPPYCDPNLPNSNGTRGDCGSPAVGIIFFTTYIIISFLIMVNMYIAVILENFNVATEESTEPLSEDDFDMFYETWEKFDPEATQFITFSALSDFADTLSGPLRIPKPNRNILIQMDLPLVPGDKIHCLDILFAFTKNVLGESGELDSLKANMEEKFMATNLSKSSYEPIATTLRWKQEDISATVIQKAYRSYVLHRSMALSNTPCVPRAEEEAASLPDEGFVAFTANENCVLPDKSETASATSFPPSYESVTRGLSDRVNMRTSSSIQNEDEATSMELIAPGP
# T1 sequence (Q9NY72 23-215 partner): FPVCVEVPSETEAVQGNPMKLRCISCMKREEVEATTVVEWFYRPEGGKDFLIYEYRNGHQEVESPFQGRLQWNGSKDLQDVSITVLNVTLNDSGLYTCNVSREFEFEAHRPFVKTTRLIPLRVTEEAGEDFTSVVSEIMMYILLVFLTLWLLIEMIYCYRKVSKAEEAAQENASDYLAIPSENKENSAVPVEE
row,SMILES,IC50
1,Cc1nn(C[C@@H]2CCC(F)(F)C2)c(C(=O)Nc2cncc(C(N)=O)c2)c1C(F)(F)F [SC-247R],1000 to 10000 nM
2,Cc1nn(C[C@H]2CCC(F)(F)C2)c(C(=O)Nc2cncc(C(N)=O)c2)c1C(F)(F)F [SC-247S],100 to 1000 nM
3,Cc1nn(C[C@@H]2CCC(F)(F)C2)c(C(=O)Nc2ccnc(C(N)=O)n2)c1C(F)(F)F [SC-248R],1000 to 10000 nM
4,Cc1nn(C[C@H]2CCC(F)(F)C2)c(C(=O)Nc2ccnc(C(N)=O)n2)c1C(F)(F)F [SC-248S],1000 to 10000 nM
5,"Cc1cnc(C(N)=O)cc1NC(=O)c1c(C(F)(F)F)c(C)nn1CC1CCC(F)(F)CC1 [SC-249, 4-(1-((4,4-difluorocyclohexyl)methyl)-3-methyl-4-(trifluoromethyl)-1H-pyrazole-5-carboxamido)-5-methyipicolinamide]",100 to 1000 nM
6,"CS(=O)(=O)c1cc(NC(=O)c2c(C(F)(F)F)c(C3CC3)nn2CC2CCC(F)(F)CC2)ccn1 [SC-250, 3-cyclopropyl-1-((4,4-difluorocyclohexyl)methyl)-N-(2-(methylsulfonyl)pyridin-4-yl)-4-(trifluoromethyl)-1H-pyrazole-5-carboxamide]",≤ 100 nM
7,"Cc1ncc(NC(=O)c2c(C(F)(F)F)c(C)nn2CC2CCC(F)(F)CC2)cc1C(N)=O [SC-251, 5-(1-((4,4-difluorocyclohexyl)methyl)-3-methyl-4-(trifluoromethyl)-1H-pyrazole-5-carboxamido)-2-methylnicotinamide]",1000 to 10000 nM
8,"Cc1cc(NC(=O)c2c(C(F)(F)F)c(C)nn2CC2CCC(F)(F)CC2)ccn1 [SC-252, 1-((4,4-difluorocyclohexyl)methyl)-3-methyl-N-(2-methylpyridin-4-yl)-4-(trifluoromethyl)-1H-pyrazole-5-carboxamide]",100 to 1000 nM
9,"Cc1nn(CC2CCC(F)(F)CC2)c(C(=O)Nc2cccc(C(N)=O)n2)c1C(F)(F)F [SC-253, 6-(1-((4,4-difluorocyclohexyl)methyl)-3-methyl-4-(trifluoromethyl)-1H-pyrazole-5-carboxamido)picolinamide]",1000 to 10000 nM
10,"CS(=O)(=O)c1cccc(NC(=O)c2c(C(F)(F)F)cnn2CC2(O)CCCCC2)c1 [SC-255, 1-((1-hydroxycyclohexyl)methyl)-N-(3-(methylsulfonyl)phenyl)-4-(trifluoromethyl)-1H-pyrazole-5-carboxamide]",1000 to 10000 nM
11,"Cc1nn(CC2CCC(F)(F)CC2)c(C(=O)Nc2ncc(C(N)=O)o2)c1C(F)(F)F [SC-256, 2-(1-((4,4-difluorocyclohexyl)methyl)-3-methyl-4-(trifluoromethyl)-1H-pyrazole-5-carboxamido)oxazole-5-carboxamide]",1000 to 10000 nM
12,"Cc1nn(CC2CCC(F)(F)CC2)c(C(=O)Nc2ccc(C(N)=O)nc2)c1C(F)(F)F [SC-257, 5-(1-((4,4-difluorocyclohexyl)methyl)-3-methyl-4-(trifluoromethyl)-1H-pyrazole-5-carboxamido)picolinamide]",100 to 1000 nM
13,"CNC(=O)c1cc(NC(=O)c2c(C(F)(F)F)c(C)nn2CC2CCC(F)(F)CC2)ccn1 [SC-260, 4-(1-((4,4-difluorocyclohexyl)methyl)-3-methyl-4-(trifluoromethyl)-1H-pyrazole-5-carboxamido)-N-methyIpicolinamide]",100 to 1000 nM
14,"NC(=O)c1cc(NC(=O)c2c(Cl)c(C3CC3)nn2CC2CCOCC2)ccn1 [SC-261, 4-(4-chloro-3-cyclopropyl-1-((tetrahydro-2H-pyran-4-yl)methyl)-1H-pyrazole-5-carboxamido)picolinamide]",100 to 1000 nM
15,"NS(=O)(=O)c1cccc(NC(=O)c2c(C(F)(F)F)c(C(F)F)nn2CC2CCC(F)(F)C2)c1 (stereo not shown) [SC-262, 1-((3,3-difluorocyclopentyl)methyl)-3-(difluoromethyl)-N-(3-sulfamoylphenyl)-4-(trifluoromethyl)-1H-pyrazole-5-carboxamide]",≤ 100 nM
16,"CS(=O)(=O)c1cc(NC(=O)c2c(C(F)(F)F)c(C3CC3)nn2CC2CCCO2)ccn1 (stereo not shown) [SC-263, 3-cyclopropyl-N-(2-(methylsulfonyl)pyridin-4-yl)-1-((tetrahydrofuran-2-yl)methyl)-4-(trifluoromethyl)-1H-pyrazole-5-carboxamide]",100 to 1000 nM
17,"NS(=O)(=O)c1cccc(NC(=O)c2c(C(F)(F)F)c(C3CC3)nn2CC2CCCCO2)c1 (stereo not shown) [SC-264, 3-cyclopropyl-N-(3-sulfamoylphenyl)-1-((tetrahydro-2H-pyran-2-yl)methyl)-4-(trifluoromethyl)-1H-pyrazole-5-carboxamide]",≤ 100 nM

row,SMILES,IC50
1,"COc1nn(CC2CCC(F)(F)C2)c(C(=O)Nc2cccc(S(N)(=O)=O)c2)c1C(F)(F)F (stereo not shown) [SC-265, 1-((3,3-difluorocyclopentyl)methyl)-3-methoxy-N-(3-sulfamoyIphenyl)-4-(trifluoromethyl)-1H-pyrazole-5-carboxamide]",≤ 100 nM
2,"NC(=O)c1cc(NC(=O)c2c(C(F)(F)F)c(C3CC3)nn2CC2CC2)ccn1 [SC-266, 4-(3-cyclopropyl-1-(cyclopropylmethyl)-4-(trifluoromethyl)-1H-pyrazole-5-carboxamido)picolinamide]",≤ 100 nM
3,"Cc1cc(NC(=O)c2c(C(F)(F)F)c(C)nn2CC2CCC(F)(F)CC2)cc(C(N)=O)n1 [SC-267, 4-(1-((4,4-difluorocyclohexyl)methyl)-3-methyl-4-(trifluoromethyl)-1H-pyrazole-5-carboxamido)-6-methylpicolinamide]",100 to 1000 nM
4,"Cc1nn(CC2CCC(F)(F)CC2)c(C(=O)Nc2cc(C(N)=O)c(F)cn2)c1C(F)(F)F [SC-268, 2-(1-((4,4-difluorocyclohexyl)methyl)-3-methyl-4-(trifluoromethyl)-1H-pyrazole-5-carboxamido)-5-fluoroisonicotinamide]",1000 to 10000 nM
5,"COc1c(C(F)(F)F)nn(CC2CCC(F)(F)C2)c1C(=O)Nc1ccnc(C(N)=O)c1 (stereo not shown) [SC-269, 4-(1-((3,3-difluorocyclopentyl)methyl)-4-methoxy-3-(trifluoromethyl)-lH-pyrazole-5-carboxamido)picolinamide]",100 to 1000 nM
6,"COc1nn(CC2CCC(F)(F)C2)c(C(=O)Nc2ccnc(C(N)=O)c2)c1C(F)(F)F (stereo not shown) [SC-273, 4-(1-((3,3-difluorocyclopentyl)methyl)-3-methoxy-4-(trifluoromethyl)-lH-pyrazole-5-carboxamido)picolinamide]",≤ 100 nM
7,"NC(=O)c1cc(NC(=O)c2c(C(F)(F)F)c(C3CC3)nn2CC2CC(F)(F)C2)ccc1F [SC-274, N-(3-carbamoyl-4-fluorophenyl)-3-cyclopropyl-1-((3,3-difluorocyclobutyl)methyl)-4-(trifluoromethyl)-1H-pyrazole-5-carboxamide]",≤ 100 nM
8,"CS(=O)(=O)c1cc(NC(=O)c2c(C(F)F)c(C3CC3)nn2CC2CCC(F)(F)C2)ccn1 (stereo not shown) [SC-275, 3-cyclopropyl-1-((3,3-difluorocyclopentyl)methyl)-4-(difluoromethyl)-N-(2-(methylsulfonyl)pyridin-4-yl)-1H-pyrazole-5-carboxamide]",≤ 100 nM
9,"NS(=O)(=O)c1cccc(NC(=O)c2c(C(F)(F)F)c(C3CC3)nn2CC2CC(F)(F)C2)c1 [SC-276, 3-cyclopropyl-1-((3,3-difluorocyclobutyl)methyl)-N-(3-sulfamoyIphenyl)-4-(trifluoromethyl)-lH-pyrazole-5-carboxamide]",≤ 100 nM
10,"Cc1nn(CC2CCC(F)(F)CC2)c(C(=O)Nc2cnnc(S(C)(=O)=O)c2)c1C(F)(F)F [SC-280, 1-((4,4-difluorocyclohexyl)methyl)-3-methyl-N-(6-(methylsulfonyl)pyridazin-4-yl)-4-(trifluoromethyl)-1H-pyrazole-5-carboxamide]",100 to 1000 nM
11,"NS(=O)(=O)c1cc(NC(=O)c2c(C(F)(F)F)c(C3CC3)nn2CC2CC(F)(F)C2)ccn1 [SC-282, 3-cyclopropyl-1-((3,3-difluorocyclobutyl)methyl)-N-(2-sulfamoylpyridin-4-yl)-4-(trifluoromethyl)-1H-pyrazole-5-carboxamide]",≤ 100 nM
12,"NC(=O)c1cc(NC(=O)c2c(C(F)(F)F)c(OC3CC(F)(F)C3)nn2CC2CCC(F)(F)C2)ccn1 (stereo not shown) [SC-283, 4-(3-(3,3-difluorocyclobutoxy)-1-((3,3-difluorocyclopentyl)methyl)-4-(trifluoromethyl)-1H-pyrazole-5-carboxamido)picolinamide]",≤ 100 nM
13,"Cc1nn(CC2CCC(F)(F)CC2)c(C(=O)Nc2ccnc(C(N)=O)c2F)c1C(F)(F)F [SC-289, 4-(1-((4,4-difluorocyclohexyl)methyl)-3-methyl-4-(trifluoromethyl)-1H-pyrazole-5-carboxamido)-3-fluoropicolinamide]",1000 to 10000 nM
14,"CS(=O)(=O)c1cc(NC(=O)c2c(C(F)(F)F)c(C3CC3)nn2CC2CC(OC(F)F)C2)ccn1 (stereo not shown) [SC-290, 3-cyclopropyl-1-((3-(difluoromethoxy)cyclobutyl)methyl)-N-(2-(methyIsulfonyl)pyridin-4-yl)-4-(trifluoromethyl)-1H-pyrazole-5-carboxamide]",100 to 1000 nM
15,"Cc1nn(CC2CCC(F)(F)CC2)c(C(=O)Nc2ccnc(C(N)=O)c2C)c1C(F)(F)F [SC-294, 4-(1-((4,4-difluorocyclohexyl)methyl)-3-methyl-4-(trifluoromethyl)-1H-pyrazole-5-carboxamido)-3-methylpicolinamide]",1000 to 10000 nM
16,"Cc1c(C(C)(F)F)nn(CC2CC(F)(F)C2)c1C(=O)Nc1cccc(S(N)(=O)=O)c1 [SC-295, 1-((3,3-difluorocyclobutyl)methyl)-3-(1,1-difluoroethyl)-4-methyl-N-(3-sulfamoylphenyl)-1H-pyrazole-5-carboxamide]",≤ 100 nM
17,"CCc1nn(CC2CCC(F)(F)C2)c(C(=O)Nc2ccnc(S(C)(=O)=O)c2)c1C(F)(F)F (stereo not shown) [SC-297, 1-((3,3-difluorocyclopentyl)methyl)-3-ethyl-N-(2-(methylsulfonyl)pyridin-4-yl)-4-(trifluoromethyl)-1H-pyrazole-5-carboxamide]",≤ 100 nM
